Data set [1] is described as follows: stability study over 6 months. The format is physicochemical. To be noted: variable temperature and relative humidity conditions, packaging of the aluminium/PVC blister type.
Data set [2] in a line: degradation during extrusion in the hot state. It is filed as physicochemical. The conditions noted are these: extrusion in the hot state at temperatures of from 95° C. to 110° C. The protocol: Moreover, and in surprising manner, it has been shown that the perindopril tert-butylamine salt, which is usually unstable to temperature or in association with certain acidic excipients, was not degraded, or only slightly degraded, during extrusion in the hot state carried out at temperatures of from 95° C. to 110° C. (less than 3% degradation).

Structures can show the parent of a compound that is named as a salt.

On to `CCC[C@H](N[C@@H](C)C(=O)N1[C@H](C(=O)O)C[C@@H]2CCCC[C@@H]21)C(=O)OCC` [perindopril tert-butylamine salt, perindopril], for which the stability result in data set [1] is recorded as “excellent stability”. Further, the degradation entry in data set [2] is on record as “less than 3%”.

The values are drawn from patent US20040115227A1, “Thermoformable solid pharmaceutical composition for controlled release of perindopril” (priority 2000, published 2004).
